Reference: article PMC7408072 (Pharmaceutics, 2020)
Peptide text beside a SMILES is read from it. * marks the point of attachment. 5TAMRA = CN(C)c1ccc2c(c1)Oc1cc(N(C)C)ccc1C21OC(=O)c2cc(C(=O)*)ccc21

Assays:
[1] = tested on: bovine BCEC monolayers co-cultured with rat astrocytes; assay: Transport, membrane adherence and cell uptake quantified by TAMRA fluorescence (bovine model); format: in vitro ADME; conditions: 3 h, 37 °C, N = 2-3, n = 3; for peptide transported across the barrier (abluminal content): 100 µM peptide luminal, 90 rpm, medium with 10% FBS, abluminal TAMRA fluorescence, compared to TAMRA-NR2B9c; for peptide adhering to the cell surface / peptide taken up by the cells (endothelial cells and astrocytes): 100 µM peptide, TAMRA fluorescence 542/568 nm, mean ± SEM; for peptide adhering to the cell surface: acetic acid buffer pH 3 wash fraction; for peptide taken up by the cells (endothelial cells and astrocytes): lysate fraction
Description: (§1) Transport across bovine or mouse BCEC monolayers co-cultured with rat astrocytes was carried out over 3 h at 37 °C with horizontal shaking (90 rpm). TEER was measured at room temperature using an Endohm 12 cup (World Precision Instruments, Sarasota, FL, USA) connected to a Millicell-ERS device (Millipore, Bedford, MA, USA). TEER was measured before application of the peptides and after each experiment. The bovine model had initial TEER values ranging from 771 to 1332 Ω·cm^2, whereas the mouse model had initial TEER values ranging from 136 to 217 Ω·cm^2.
TAMRA fluorescence was measured using a NovoStar fluorescence plate reader (BMG Labtech, Offenburg, Germany) with excitation/emission set to 542/568 nm. The transported peptide was calculated using standard curves ranging from 31 nM to 2 µM. All peptide standard curves were subjected to 3 h of incubation at 37 °C with horizontal shaking (90 rpm) in differentiation media withdrawn from BCECs co-cultured with rat astrocytes.
Two filters from each BCEC batch were subjected to quantification of the TAMRA-peptide adhering to the BCEC plasma membrane and peptide taken up by the BCECs and astrocytes. […] The peptide solutions were removed from the cells and the filters washed thrice with 37 °C hHBSS. To isolate the peptide fraction adhering to the plasma membrane, the BCECs were placed on ice and incubated with 300 µL ice-cold acetic acid buffer ([…], 1% BSA, pH 3) for 5 min. The acetic acid buffer solution was gently pipetted up and down twice prior to collection of 100 µL samples into a black clear-bottom 96-well plate for analysis. The remaining acetic acid buffer solution was removed from the luminal chamber and the cells washed thrice with ice-cold hHBSS. To isolate the peptide fraction being taken up by the BCECs and astrocytes, the filter inserts were cut out and 150 µL of ice-cold lysis buffer (10 mM Tris-HCl, 0.25 M sucrose, 1 mM EDTA, 1 mM ethylene-bis(oxyethylenenitrilo)tetraacetic acid tetrasodium (EGTA), 2% Tergitol™, Complete® inhibitor tablet) added prior to incubation for 10 min on ice. The cells were homogenized using a pellet pestle (Merck, St. Louis) and subjected to centrifugation at 10,000× g at 4 °C for 10 min. The 100 µL supernatant was transferred into a black clear-bottom 96-well plate. TAMRA fluorescence was measured using a NovoStar fluorescence plate reader (BMG Labtech, Offenburg, Germany) with excitation/emission set to 542/568 nm. The molar amount of membrane-adhered peptide and peptide taken up by the cells was calculated using standard curves freshly prepared in acetic acid buffer and lysis buffer, respectively, in concentrations ranging from 40 nM to 2.5 µM.

[2] = tested on: primary mouse BCECs in co-culture with primary rat astrocytes; assay: Transport and cellular accumulation (mouse BBB model); format: in vitro ADME; conditions: 100 µM peptide, 3 h, TAMRA fluorescence; for transendothelial permeation of the mouse BBB model compared to TAMRA-NR2B9c: N = 3, n = 3 (Figure S5A); for accumulation in the cell fraction of the mouse BBB model compared to TAMRA-NR2B9c: lysate, N = 3, n = 3 (Figure S5B)
Description: Generation of mouse BCEC monolayers in co-culture with rat astrocytes: the capillary fragments were allowed to settle for 2–3 h before changing the media to DMEM containing 10% FBS and pyromycin (4 µg/mL). On day 3, the media was changed to DMEM containing 10% FBS and rat astrocytes seeded on the bottom of collagen and fibronectin coated (both 0.01 mg/mL in PBS) Transwell® plate permeable supports (120,000 cells/1.12 cm^2 support with 0.4 µm pore size). On day 5, the media in the Transwell® plate was changed to Complete Mouse Endothelial Cell Medium (PELOBiotech, Planegg/Martinsried, Germany). The endothelial cells were detached from the flask using trypsin-EDTA. The remaining trypsin-EDTA was removed by centrifugation in DMEM containing 10% FBS at 500× g for 5 min at room temperature. The endothelial cells were re-suspended in Complete Mouse Endothelial Cell Medium and seeded on the apical side of the Transwell® plate permeable supports (100,000 cells/support). On day 8, the medium was changed to differentiation medium. On day 10, the mouse BBB model was ready for use as evident by the measured transendothelial electrical resistance (TEER) values for each filter prior experimental start.
as §1
The withdrawn volume was replaced with media.
Transported peptide was calculated based on fluorescence using the same method as described for peptides applied to the bovine model. Subsequently, the peptide solutions were removed from the cells and the filters washed thrice with 4 °C hHBSS. To isolate the peptides accumulated in the cell fraction, the filter inserts were cut out and 250 µL of ice-cold lysis buffer added. The peptides were retrieved and quantified as described for the cell uptake fraction obtained following the permeation study using the bovine model.

Tissue distribution = format: in vivo, NMRI mice
Description: Following 1 h of circulation, the mice were deeply anesthetized by i.p. injection of 0.05 mL/10 g body weight Ketaminol/Dexdormitor (2.25 mg ketamine/0.03 mg […] per 10 g body weight in 0.9% NaCl). The chest cage was opened and the mice transcardially perfused with 0.01 M PBS (pH 7.4) prior to isolation of the brain, heart, lungs, spleen, kidney, liver, and 2 cm of the upper part of the intestine. All tissues were immediately put on ice and kept at −80 °C until analysis.
The tissues were homogenized in 1 mL of ice-cold lysis buffer using a 7-mL Dounce tissue grinder set (Merck, St. Louis, MO, USA). Homogenates were left on ice for 10 min prior to centrifugation at 14,000× g and 4 °C for 10 min. Supernatants (100 µL) were transferred to a black clear-bottom 96-well plate for quantification of the TAMRA-peptides using a NovoStar fluorescence plate reader (BMG Labtech, Offenburg, Germany) with excitation and emission set to 542 and 568 nm, respectively. The molar peptide amounts were calculated using standard curves that were freshly prepared in lysates from relevant blank tissue at concentrations ranging from 30 nM to 2 µM.

[3] = tested on: bovine BCEC monolayers co-cultured with rat astrocytes; assay: Transport and cell uptake of 3-5 kDa FITC-dextran in the presence of peptide (bovine model); format: cell-based; conditions: 1 mg/mL FITC-dextran with 100 µM peptide, luminal, 3 h, abluminal FITC fluorescence; N = 3, n = 3
Description: as §1
FITC fluorescence was measured using a NovoStar fluorescence plate reader (BMG Labtech, Offenburg, Germany) with excitation/emission set to 494/518 nm. […] The filters were washed with PBS thrice for 5 min, mounted on glass slides under coverslips using Immu-Mount™ mounting media (Thermo Fischer Scientific, Bedford, MA, USA), and imaged using single wavelength excitation on a Leica SP2 laser-scanning confocal microscope (Leica Microsystems, Wetzlar, Germany).

[4] = 3 nmol/g i.v., 1 h, NMRI mice, comparison among the Tat-conjugates

Row | Structure (SMILES) | peptide transported across the barrier (abluminal content) [1] | peptide adhering to the cell surface [1] | peptide taken up by the cells (endothelial cells and astrocytes) [1] | transendothelial permeation of the mouse BBB model compared to TAMRA-NR2B9c [2] | accumulation in the cell fraction of the mouse BBB model compared to TAMRA-NR2B9c [2] | accumulation in the liver (Tissue distribution; [4]) | transendothelial permeation of 3-5 kDa FITC-dextran applied with peptide, compared to FITC-dextran alone [3] | TAMRA fluorescence in the kidney (Tissue distribution; [4]) | tissue uptake at 1 h (Tissue distribution; male, NMRI, mouse, brain, iv, 3 nmol/g body weight, mice, tissue distribution (abstract), read-out: brain accumulation) | amount in mouse brain homogenate (Tissue distribution; 3 nmol peptide/g body weight, tail vein, 1 h circulation, perfused NMRI mice, TAMRA fluorescence in whole tissue homogenate, mean ± SD, N = 4-6) | accumulation in the intestines (Tissue distribution; [4]) | TAMRA fluorescence in the brain homogenates (comparison) (Tissue distribution; 3 nmol/g i.v., 1 h, NMRI mice, unpaired t-test)
1 | CC[C@H](C)[C@H](NC(=O)[C@H](CO)NC(=O)[C@H](CO)NC(=O)[C@H](CC(C)C)NC(=O)[C@H](CCCCN)NC(=O)[C@H](CCCNC(=N)N)NC(=O)[C@H](CCCNC(=N)N)NC(=O)[C@H](CCCNC(=N)N)NC(=O)[C@H](CCC(N)=O)NC(=O)[C@H](CCCNC(=N)N)NC(=O)[C@H](CCCNC(=N)N)NC(=O)[C@H](CCCCN)NC(=O)[C@H](CCCCN)NC(=O)[C@H](CCCNC(=N)N)NC(=O)CNC(=O)[C@H](Cc1ccc(O)cc1)NC(=O)c1ccc2c(c1)C(=O)OC21c2ccc(N(C)C)cc2Oc2cc(N(C)C)ccc21)C(=O)N[C@@H](CCC(=O)O)C(=O)N[C@@H](CO)C(=O)N[C@@H](CC(=O)O)C(=O)N[C@H](C(=O)O)C(C)C [TAMRA-Tat-NR2B9c] (5TAMRA-YGRKKRRQRRRKLSSIESDV-OH) | to a greater extent than TAMRA-NR2B9c | Significantly larger amounts | Significantly larger amounts | to a greater extent than TAMRA-NR2B9c | to a greater extent than TAMRA-NR2B9c | to a greater extent than TAMRA-Tat and TAMRA-Tat-N-dimer | – | – | – | – | – | –
2 | CC[C@H](C)[C@H](NC(=O)CCOCCOCCN(CCOCCOCCC(=O)N[C@H](C(=O)N[C@@H](CCC(=O)O)C(=O)N[C@H](C(=O)N[C@@H](CC(=O)O)C(=O)N[C@H](C(=O)O)C(C)C)[C@@H](C)O)[C@@H](C)CC)C(=O)[C@H](CCCNC(=N)N)NC(=O)[C@H](CCCNC(=N)N)NC(=O)[C@H](CCCNC(=N)N)NC(=O)[C@H](CCC(N)=O)NC(=O)[C@H](CCCNC(=N)N)NC(=O)[C@H](CCCNC(=N)N)NC(=O)[C@H](CCCCN)NC(=O)[C@H](CCCCN)NC(=O)[C@H](CCCNC(=N)N)NC(=O)CNC(=O)[C@H](Cc1ccc(O)cc1)NC(=O)c1ccc2c(c1)C(=O)OC21c2ccc(N(C)C)cc2Oc2cc(N(C)C)ccc21)C(=O)N[C@@H](CCC(=O)O)C(=O)N[C@H](C(=O)N[C@@H](CC(=O)O)C(=O)N[C@H](C(=O)O)C(C)C)[C@@H](C)O [TAMRA-Tat-N-dimer] | No significant difference | Minute amounts | Minute amounts | lower | – | – | did not increase | more fluorescence in the kidney than TAMRA-Tat or TAMRA-Tat-NR2B9c | 0.25 %ID/g | – | – | –
3 | CN(C)c1ccc2c(c1)Oc1cc(N(C)C)ccc1C21OC(=O)c2cc(C(=O)N[C@@H](Cc3ccc(O)cc3)C(=O)NCC(=O)N[C@@H](CCCNC(=N)N)C(=O)N[C@@H](CCCCN)C(=O)N[C@@H](CCCCN)C(=O)N[C@@H](CCCNC(=N)N)C(=O)N[C@@H](CCCNC(=N)N)C(=O)N[C@@H](CCC(N)=O)C(=O)N[C@@H](CCCNC(=N)N)C(=O)N[C@@H](CCCNC(=N)N)C(=O)N[C@@H](CCCNC(=N)N)C(=O)O)ccc21 [TAMRA-Tat] | to a greater extent than TAMRA-NR2B9c | Significantly larger amounts | Significantly larger amounts | similar | to a greater extent than TAMRA-NR2B9c | – | – | – | – | 0.4% ± 0.1% | superior | slightly higher levels
4 | CC[C@H](C)[C@H](NC(=O)[C@H](CO)NC(=O)[C@H](CO)NC(=O)[C@H](CC(C)C)NC(=O)[C@H](CCCCN)NC(=O)c1ccc2c(c1)C(=O)OC21c2ccc(N(C)C)cc2Oc2cc(N(C)C)ccc21)C(=O)N[C@@H](CCC(=O)O)C(=O)N[C@@H](CO)C(=O)N[C@@H](CC(=O)O)C(=O)N[C@H](C(=O)O)C(C)C [TAMRA-NR2B9c] (5TAMRA-KLSSIESDV-OH) | – | Minute amounts | Minute amounts | – | – | – | – | – | – | – | – | –
